Assay results: DBAASP
Converted amounts (≈) assume the structure as drawn.

Columns and labels:
Test in all cases: ≥ marks a high value that may be exact or a test limit, other limits are often not marked, values filed in µg/mL are converted to µM
[1] = test system: Aeromonas hydrophila 12
[2] = test system: Aeromonas intestinalis 58209
[3] = test system: Aeromonas sobria CR79-1-1
[4] = test system: Escherichia coli DH5alpha
[5] = test system: Flavobacterium columnare G4
[6] = test system: Pseudomonas fluorescens 56-12-10
[7] = test system: Pseudomonas fluorescens biotype I W81-11
[8] = test system: Vibrio anguillarum E-3-11
[9] = test system: Vibrio anguillarum SGL 8542
[10] = test system: Yersinia ruckeri SC90-2-4

MIC [1]: ≥ 160 µM | MIC [2]: 14.1 µM (≈ 35.5 µg/mL) | MIC [3]: 14.1 µM (≈ 35.5 µg/mL) | MIC [4]: 7.07 µM (≈ 17.7 µg/mL) | MIC [5]: ≥ 56.6 µM | MIC [6]: 14.1 µM (≈ 35.5 µg/mL) | MIC [7]: 14.1 µM (≈ 35.5 µg/mL) | MIC [8]: 28.3 µM (≈ 71 µg/mL) | MIC [9]: ≥ 56.6 µM | MIC [10]: 28.3 µM (≈ 71 µg/mL)
Structure (SMILES): CC[C@H](C)[C@H](N)C(=O)N[C@@H](Cc1ccccc1)C(=O)N[C@@H](Cc1cnc[nH]1)C(=O)N[C@@H](Cc1cnc[nH]1)C(=O)N[C@H](C(=O)N[C@@H](Cc1ccccc1)C(=O)N[C@@H](CCCCN)C(=O)NCC(=O)N[C@H](C(=O)N[C@H](C(=O)N[C@@H](Cc1cnc[nH]1)C(=O)N[C@H](C(=O)NCC(=O)N[C@@H](CCCCN)C(=O)N[C@H](C(=O)N[C@H](C(=O)N[C@@H](Cc1cnc[nH]1)C(=O)N[C@@H](CCCN=C(N)N)C(=O)N[C@@H](CC(C)C)C(=O)N[C@H](C(=O)N[C@H](C(=O)NCC(N)=O)[C@@H](C)O)C(C)C)[C@@H](C)CC)[C@@H](C)O)C(C)C)C(C)C)[C@@H](C)CC)[C@@H](C)CC [IFHHIFKGIVHVGKTIHRLVTG]
